According to the NIST ThermoML archive (doi:10.1016/j.jct.2008.12.010):
± gives the expanded uncertainty stated by the source.

Experiment: xn = mol fraction of the nth substance listed
Conditions: for speed of sound / mass density: Liquid; for speed of sound: Linear variable-path acoustic interferometer; for mass density: Vibrating tube method; for surface tension liquid-gas: Drop volume

Cc1ccc(C)cc1 [1,4-dimethylbenzene] + CCCCCCCCCC
Conditions | mass density [kg/m3] | speed of sound [m/s] | surface tension liquid-gas [mN/m]
288.15 K, x1 = 0.1092 | 742.78 ± 0.24 | 1276.2 ± 1.9 | –
288.15 K, x1 = 0.1984 | 750.98 ± 0.24 | 1278.7 ± 1.9 | –
288.15 K, x1 = 0.3105 | 762.21 ± 0.24 | 1282.7 ± 1.9 | –
288.15 K, x1 = 0.3427 | 765.62 ± 0.24 | 1284.1 ± 1.9 | –
288.15 K, x1 = 0.4919 | 782.82 ± 0.24 | 1292.3 ± 1.9 | –
288.15 K, x1 = 0.5438 | 789.38 ± 0.24 | 1295.8 ± 1.9 | –
288.15 K, x1 = 0.5995 | 796.78 ± 0.24 | 1300.1 ± 1.9 | –
288.15 K, x1 = 0.7293 | 815.71 ± 0.24 | 1312.2 ± 2 | –
288.15 K, x1 = 0.7829 | 824.32 ± 0.24 | 1318.2 ± 2 | –
288.15 K, x1 = 0.8993 | 844.93 ± 0.24 | 1333.7 ± 2 | –
288.15 K, x1 = 0.9499 | 854.78 ± 0.24 | 1341.9 ± 2 | –
293.15 K, x1 = 0.1092 | 739.03 ± 0.24 | 1256.7 ± 1.9 | –
293.15 K, x1 = 0.1984 | 747.15 ± 0.24 | 1259 ± 1.9 | –
293.15 K, x1 = 0.3427 | 761.75 ± 0.24 | 1264.3 ± 1.9 | –
293.15 K, x1 = 0.4919 | 778.88 ± 0.24 | 1272.3 ± 1.9 | –
293.15 K, x1 = 0.5438 | 785.41 ± 0.24 | 1275.7 ± 1.9 | –
293.15 K, x1 = 0.5995 | 792.78 ± 0.24 | 1279.9 ± 1.9 | –
293.15 K, x1 = 0.7293 | 811.62 ± 0.24 | 1291.8 ± 1.9 | –
293.15 K, x1 = 0.7829 | 820.21 ± 0.24 | 1297.8 ± 1.9 | –
293.15 K, x1 = 0.8993 | 840.73 ± 0.24 | 1312.9 ± 2 | –
293.15 K, x1 = 0.9499 | 850.54 ± 0.24 | 1320.9 ± 2 | –
293.18 K, x1 = 0.3105 | 758.36 ± 0.24 | 1262.9 ± 1.9 | –
298.15 K, x1 = 0.09726 | – | – | 23.21 ± 0.26
298.15 K, x1 = 0.1092 | 735.23 ± 0.24 | 1236.5 ± 1.9 | –
298.15 K, x1 = 0.1984 | 743.31 ± 0.24 | 1238.7 ± 1.9 | –
298.15 K, x1 = 0.2 | – | – | 23.4 ± 0.27
298.15 K, x1 = 0.2959 | – | – | 23.61 ± 0.27
298.15 K, x1 = 0.3105 | 754.46 ± 0.24 | 1242.7 ± 1.9 | –
298.15 K, x1 = 0.3427 | 757.83 ± 0.24 | 1244 ± 1.9 | –
298.15 K, x1 = 0.4047 | – | – | 23.89 ± 0.27
298.15 K, x1 = 0.4919 | 774.88 ± 0.24 | 1251.8 ± 1.9 | –
298.15 K, x1 = 0.4998 | – | – | 24.23 ± 0.27
298.15 K, x1 = 0.5374 | – | – | 24.37 ± 0.27
298.15 K, x1 = 0.5438 | 781.38 ± 0.24 | 1255.3 ± 1.9 | –
298.15 K, x1 = 0.5995 | 788.72 ± 0.24 | 1259.3 ± 1.9 | –
298.15 K, x1 = 0.6024 | – | – | 24.66 ± 0.27
298.15 K, x1 = 0.6962 | – | – | 25.15 ± 0.27
298.15 K, x1 = 0.7293 | 807.48 ± 0.24 | 1271.1 ± 1.9 | –
298.15 K, x1 = 0.7829 | 816.03 ± 0.24 | 1276.9 ± 1.9 | –
298.15 K, x1 = 0.8025 | – | – | 25.73 ± 0.27
298.15 K, x1 = 0.8914 | – | – | 26.33 ± 0.28
298.15 K, x1 = 0.8993 | 836.47 ± 0.24 | 1291.9 ± 1.9 | –
298.15 K, x1 = 0.9499 | 846.25 ± 0.24 | 1299.8 ± 1.9 | –
298.15 K, x1 = 0.9503 | – | – | 26.79 ± 0.28
303.15 K, x1 = 0.1092 | 731.39 ± 0.24 | 1216.6 ± 1.9 | –
303.15 K, x1 = 0.1984 | 739.42 ± 0.24 | 1218.8 ± 1.9 | –
303.15 K, x1 = 0.3105 | 750.53 ± 0.24 | 1222.5 ± 1.9 | –
303.15 K, x1 = 0.3427 | 753.87 ± 0.24 | 1223.9 ± 1.9 | –
303.15 K, x1 = 0.4919 | 770.85 ± 0.24 | 1231.6 ± 1.9 | –
303.15 K, x1 = 0.5438 | 777.33 ± 0.24 | 1235 ± 1.9 | –
303.15 K, x1 = 0.5995 | 784.63 ± 0.24 | 1239 ± 1.9 | –
303.15 K, x1 = 0.7293 | 803.32 ± 0.24 | 1250.6 ± 1.9 | –
303.15 K, x1 = 0.7829 | 811.82 ± 0.24 | 1256.3 ± 1.9 | –
303.15 K, x1 = 0.8993 | 832.18 ± 0.24 | 1271.3 ± 1.9 | –
303.15 K, x1 = 0.9499 | 841.92 ± 0.24 | 1278.9 ± 1.9 | –
